According to article PMC10058050, “A Bitter Taste Receptor as a Novel Molecular Target on Cancer-Associated Fibroblasts in Pancreatic Ductal Adenocarcinoma” (Pharmaceuticals, 2023):

Legend:
[1] = all dose levels up to 240 mg; cited from earlier work
Source text: While mounting evidence points to a role of bitter taste receptors in cancer epithelial cells and in Tuft cells, this report, is to our knowledge, the first indication that TAS2R9 is expressed on CAFs. The fact that TAS2R9 is overexpressed in 7.33% of human PDAC tissue, and that its expression in pancreatic CAFs is 57-fold higher than in the human dermal fibroblast raises the interesting question of what role TAS2R9 may play in CAFs. In particular, the revelation that TAS2R9 mRNA expression ...

Ki67 = Ki67 staining of tumor sections (cell proliferation); format: in vivo, mouse (athymic nude); conditions: ImageJ; p < 0.01
Procedure: Tumor sections were blocked for 1 h in blocking buffer, and incubated with FITC-conjugated anti-CD31 (BD biosciences, 1:100, 20 min) then anti-rat secondary (1:250, 20 min), or anti-Ki67 (Abcam, 1:250, 20 min) then anti-rabbit secondary (1:250, 20 min). Images were collected using ZEISS LSM-880 Confocal Laser Scanning Microscope (Carl Zeiss Meditec, Inc., Jena, Germany). Mander’s correlation coefficients were determined using the JACoP plugin in ImageJ (National Institute of Health, Bethesda, MD, USA) for the colocalization analysis. To characterize CD31 and Ki67 expression, the area fraction of the positive pixels was measured for each image using the Measurement Tool in ImageJ. Section averages were entered into Prism to find overall means for each treatment group and tested for statistical significance between groups using the Student’s t-test.
The drug dosage was calculated for each treatment to achieve the same weekly amount of Sb225002 given per animal. Tumor volume was measured with calipers twice weekly until day 19, at which time the tumors were harvested for cell proliferation (Ki67) and angiogenesis (CD31) analysis, and CXCR2 IHC staining.

KPC mice = conditions: cited from earlier work
Source text: CXCR2 antagonists have been explored in non-cancer lung diseases (e.g., NCT01255592, NCT01006616) and in certain cancers such as castration-resistant prostate cancer (NCT03177187) and squamous cell carcinoma of the head and neck (NCT02499328).

CXCR2 = conditions: cited from earlier work
Source text: To further evaluate pharmacodynamics, we characterized CXCR2 inhibition as a surrogate for the delivery of SB225002. Tumors from all groups were fixed and paraffin embedded for immunohistochemistry staining. […] Furthermore, the inhibition of angiogenesis has been cited as a contributing factor to th ...

[2] = system: recombinant human TAS2R9 (rhTAS2R9); assay: Phage ELISA on recombinant human TAS2R9 (in-proteo ELISA); format: binding; conditions: 4 × 10^9 pfu phage; absorbance 650 nm, 35 min after TMB; normalized to M13KE; 1 h RT; n = 3, p < 0.05
Procedure: Thus, we hypothesized that their binding partners could serve as potential cellular markers and therapeutic targets for CAFs. Using a phage display-based functional proteomics approach, wild-type (WT) M13KE phage or phage displaying CAF selective peptides (phHTTIPKV and phAPPIMSV) were incubated with PDAC patient-derived CAFs allowing the phage to serve as “bait.” Phage were chemically modified to crosslink to their cell surface binding partner, then phage pull-down samples were resolved via SDS-PAGE. […] In-proteo ELISA experiments were performed to evaluate the specific binding of phHTTIPKV to recombinant human TAS2R9 (rhTAS2R9). Phage displaying KTLLPTP (phKTLLPTP), a PDAC epithelial cell-specific peptide, served as a negative control. […]
(§1) Figure 1 TAS2R9 expression in CAFs isolated from human PDAC. […] (B) 4 × 10^9 pfu phHTTIPKV and a PDAC specific phage, phKTLLPTP, were applied to rhTAS2R9 to determine the absorbance of phage binding to rhTAS2R9 at 650 nm. The absorbance of both phage were normalized to the absorbance detected from rhTAS2R9 bound to the wild-type M13Ke phage. n = 3, * p < 0.05. […]
About 100 μL of 0.1 μg/mL rhTAS2R9 (Novus Biological, Littleton, CO, USA) was plated in 96-well plates overnight at 4 °C. […] The absorbance was measured on a microplate reader at 650 nm at 35 min post addition of TMB

[3] = system: CAFs isolated from the stroma of PDAC patients; conditions: cited from earlier work; for Specificity and selectivity for CAFs: CAFs isolated from the stroma of PDAC patients
[4] = system: PDAC patient-derived CAFs (TAS2R9); assay: Phage display-based pulldown from PDAC patient-derived CAFs with MS/MS identification; format: binding, human; conditions: SDS-PAGE, compared with WT M13KE phage and phAPPIMSV
Procedure: Thus, we hypothesized that their binding partners could serve as potential cellular markers and therapeutic targets for CAFs. Using a phage display-based functional proteomics approach, wild-type (WT) M13KE phage or phage displaying CAF selective peptides (phHTTIPKV and phAPPIMSV) were incubated with PDAC patient-derived CAFs allowing the phage to serve as “bait.” Phage were chemically modified to crosslink to their cell surface binding partner, then phage pull-down samples were resolved via SDS-PAGE. […] In-proteo ELISA experiments were performed to evaluate the specific binding of phHTTIPKV to recombinant human TAS2R9 (rhTAS2R9). Phage displaying KTLLPTP (phKTLLPTP), a PDAC epithelial cell-specific peptide, served as a negative control. […] Therefore, we pursued validation of TAS2R9 as HTTIPKV’s target and as a novel CAF-selective cell surface marker.
as §1, with “PDAC. (A) Phage pulldowns from PDAC patient-derived CAFs by the M13Ke (lane 1) and CAF-specific phages, phAPPIMSV and phHTTIPKV (lane 2 and 3).” for “PDAC.”

[5] = molecular target: T1, recombinant human TAS2R9 (rhTAS2R9) (human) (UniProt Q9NYW1); assay: ELISA; 0.1 ug/mL rhTAS2R9 coated on 96-well plates overnight at 4 °C, 5% milk block, 40 uL phage at 1 x 10^8 pfu/uL for 1 h at room temperature, HRP anti-M13 antibody, absorbance at 650 nm; normalised to wild-type M13KE phage
T1 sequence (Q9NYW1 whole entry, looked up): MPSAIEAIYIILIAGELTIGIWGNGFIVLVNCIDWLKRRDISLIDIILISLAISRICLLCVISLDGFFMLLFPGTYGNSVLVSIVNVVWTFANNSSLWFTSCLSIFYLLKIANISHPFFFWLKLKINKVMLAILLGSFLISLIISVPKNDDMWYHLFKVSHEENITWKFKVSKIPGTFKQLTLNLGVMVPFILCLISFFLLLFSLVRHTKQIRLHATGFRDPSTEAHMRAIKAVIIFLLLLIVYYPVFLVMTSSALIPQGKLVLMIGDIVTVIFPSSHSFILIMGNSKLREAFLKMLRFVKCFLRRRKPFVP

## CC(=O)[O-].CC[N+](CC)(CC(=O)Nc1c(C)cccc1C)Cc1ccccc1 [pan-TAS2R agonist, Denatonium Acetate]
[1]
  Tolerability in phase one clinical trial: well tolerated at all dose levels up to 240 mg

## O=C(Nc1ccc([N+](=O)[O-])cc1O)Nc1ccccc1Br [SB225002]
Ki67
  Ki67+ area fraction (cell proliferation): significant reduction in Ki67+ area fraction
KPC mice
  Survival of KPC mice: profoundly prolong survival in KPC mice
CXCR2
  Contribution to anti-tumor effects: angiogenesis: inhibition of angiogenesis has been cited as a contributing factor to the anti-tumor effects

## HTTIPKV [phHTTIPKV]
[2]
  Increase in specific binding to rhTAS2R9 compared to phKTLLPTP: 2.72 fold

## APPIMSV
[3]
  Specificity and selectivity for CAFs: high specificity and selectivity for CAFs

## HTTIPKV
[4]
  Unique band in phage pulldown: presence of a unique band
[3]
  Specificity and selectivity for CAFs: high specificity and selectivity for CAFs
[3]; signature database of 56 cell lines and tissues
  Selectivity for CAFs in vitro and in vivo: selective for CAFs across in vitro and in vivo experiments

## HTTIPKV [phage displaying HTTIPKV (phHTTIPKV)]
[5]
  fold specific binding against phKTLLPTP (each normalised to M13KE phage): 2.72 fold
